“And” between values parts separate entries of the source, which are not always exact repeats. Equal entries are not always repeated.
Tests used:
SIRT1 [1] = molecular target: T1, SIRT1 (Homo sapiens, UniProt Q96EB6); design: purchased Cayman Chemical; conditions: cited from earlier work
T1 sequence (Q96EB6 1-747): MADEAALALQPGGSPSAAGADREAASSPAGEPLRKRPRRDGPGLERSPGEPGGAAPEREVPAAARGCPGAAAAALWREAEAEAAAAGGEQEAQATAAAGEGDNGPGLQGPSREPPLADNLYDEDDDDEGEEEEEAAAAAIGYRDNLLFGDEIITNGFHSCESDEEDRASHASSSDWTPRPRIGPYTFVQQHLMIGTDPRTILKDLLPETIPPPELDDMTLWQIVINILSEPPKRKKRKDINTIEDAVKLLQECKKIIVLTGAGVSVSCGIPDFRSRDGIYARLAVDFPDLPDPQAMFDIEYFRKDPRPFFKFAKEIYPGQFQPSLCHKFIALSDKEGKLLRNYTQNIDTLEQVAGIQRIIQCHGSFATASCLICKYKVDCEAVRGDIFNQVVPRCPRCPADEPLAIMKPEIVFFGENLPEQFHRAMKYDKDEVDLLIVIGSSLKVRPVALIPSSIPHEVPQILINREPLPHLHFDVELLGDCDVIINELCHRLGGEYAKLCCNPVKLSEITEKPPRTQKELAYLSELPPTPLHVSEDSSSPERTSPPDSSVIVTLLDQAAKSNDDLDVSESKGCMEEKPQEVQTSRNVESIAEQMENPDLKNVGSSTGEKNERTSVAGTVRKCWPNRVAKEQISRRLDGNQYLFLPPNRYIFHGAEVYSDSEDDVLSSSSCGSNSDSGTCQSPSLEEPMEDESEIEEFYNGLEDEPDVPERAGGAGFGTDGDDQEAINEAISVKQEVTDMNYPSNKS

[2] = test system: OCI-Ly8-LAM-53 (OCI, DLBCL) cells; assay: Cell viability (CellTiter-Glo), OCI; type: cell-based; conditions: 72 h, cellular ATP; read-out: OCI LC50
Method: (§1) With selective SIRT2 inhibitors in hand, we proceeded to evaluate cytotoxicity of our compounds in Daudi, Raji (Burkitt lymphoma) and OCI-Ly8-LAM-53 (OCI, a representative of several Diffuse Large B-Cell Lymphoma lines; DLBCL) cell lines. Briefly, cells were plated in 96-well plates and treated with inhibitors at desired concentrations for 72 h. Cellular viability was determined by measuring the amount of cellular ATP using CellTiter-Glo assay kit (Promega) and normalized against DMSO-treated controls. […] Selected inhibitors were further evaluated in an expanded panel of cancer cell lines including breast cancer (MCF-7 and MDA-MB231), prostate cancer (PC-3) and glioblastoma multiforme (U-251). […] However, the trend in potency as a function of the structure is consistent with the results obtained against lymphoma cell lines. […] . Cell lines were obtained from ATCC (Manassas, VA, USA) and were grown under standard conditions as recommended. For viability assays, 3000 cells per well were dispensed into 96-well plates and treated with test compounds (final DMSO concentration 0.25%). Cells were incubated with test compounds (or DMSO controls) for 72 h or 5 days as noted at 37 °C in 5% CO2 and viability was determined using the CellTiter-Glo Assay (Promega Corp.) according to manufacturer’s instructions.

[3] = test system: Daudi (Burkitt lymphoma) cells; assay: Cell viability (CellTiter-Glo), Daudi; type: cell-based; conditions: Homo sapiens, 72 h, cellular ATP, read-out: Daudi LC50
Method: as §1

[4] = test system: Raji (Burkitt lymphoma) cells; assay: Cell viability (CellTiter-Glo), Raji; type: cell-based; conditions: Homo sapiens, 72 h, cellular ATP, read-out: Raji LC50
Method: as §1

SIRT3 = molecular target: T2, SIRT3 (Homo sapiens, UniProt Q9NTG7); assay: SIRT-Glo enzyme inhibition assay, SIRT3; conditions: for inhibition at 50 µM: read-out: SIRT3 percentage inhibition at 50 µM compound, 50 µM compound
T2 sequence (Q9NTG7 1-399): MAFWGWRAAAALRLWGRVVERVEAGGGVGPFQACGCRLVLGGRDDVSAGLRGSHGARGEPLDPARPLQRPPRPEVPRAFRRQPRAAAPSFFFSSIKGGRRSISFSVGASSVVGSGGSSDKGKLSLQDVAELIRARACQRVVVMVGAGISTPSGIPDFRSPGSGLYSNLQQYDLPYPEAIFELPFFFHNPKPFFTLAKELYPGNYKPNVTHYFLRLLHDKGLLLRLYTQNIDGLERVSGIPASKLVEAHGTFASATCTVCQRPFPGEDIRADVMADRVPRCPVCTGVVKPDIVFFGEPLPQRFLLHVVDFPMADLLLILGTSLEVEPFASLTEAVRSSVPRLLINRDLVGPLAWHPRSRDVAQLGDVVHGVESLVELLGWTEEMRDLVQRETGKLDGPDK
Method: (§2) SIRT1, SIRT2, and SIRT3 were purchased from Cayman Chemical. Enzyme inhibition assays were performed in 96-well black plates using the SIRT-Glo Assay (Promega Corp.) according to the manufacturer’s instructions. Compounds were dissolved in 100% DMSO and to make 5- or 10-mM stock solutions. For initial enzyme inhibition tests, 50 µM of inhibitory concentration was used. […] IC50 values were determined in triplicate and reported values are averages of two independent experiments.

SIRT2 = molecular target: T3, SIRT2 (Homo sapiens, UniProt Q8IXJ6); assay: SIRT-Glo enzyme inhibition assay, SIRT2; conditions: for IC50: SIRT2 IC50; for inhibition at 50 µM: read-out: SIRT2 percentage inhibition at 50 µM compound, 50 µM compound
T3 sequence (Q8IXJ6 1-389): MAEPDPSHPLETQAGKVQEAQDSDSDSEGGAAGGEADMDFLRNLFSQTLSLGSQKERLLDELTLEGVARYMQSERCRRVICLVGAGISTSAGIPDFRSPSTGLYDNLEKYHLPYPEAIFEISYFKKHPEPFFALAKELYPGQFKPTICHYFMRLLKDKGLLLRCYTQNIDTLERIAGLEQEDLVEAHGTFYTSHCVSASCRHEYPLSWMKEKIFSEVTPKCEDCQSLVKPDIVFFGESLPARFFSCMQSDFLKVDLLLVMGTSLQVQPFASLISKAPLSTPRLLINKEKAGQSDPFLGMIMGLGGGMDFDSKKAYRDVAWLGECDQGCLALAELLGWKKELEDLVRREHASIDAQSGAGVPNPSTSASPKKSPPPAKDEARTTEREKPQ
Method: as §2

SIRT1 [5] = molecular target: T1, SIRT1; assay: SIRT-Glo enzyme inhibition assay, SIRT1; conditions: for inhibition at 50 µM: read-out: SIRT1 percentage inhibition at 50 µM compound, 50 µM compound
Method: as §2

[6] = test system: PC-3 prostate cancer cells; assay: Cell viability (CellTiter-Glo), PC-3; type: cell-based; conditions: cellular ATP; read-out: PC3 LC50
Method: as §1

[7] = test system: MCF-7 breast cancer cells; assay: Cell viability (CellTiter-Glo), MCF-7; type: cell-based; conditions: Homo sapiens, MCF7; cellular ATP; read-out: MCF7 LC50
Method: as §1

[8] = test system: MDA-MB231 breast cancer cells; assay: Cell viability (CellTiter-Glo), MDA-MB231; type: cell-based; conditions: Homo sapiens, MDA-MB-231; cellular ATP; read-out: MDA-MB231 LC50
Method: as §1

[9] = test system: U-251 glioblastoma multiforme cells; assay: Cell viability (CellTiter-Glo), U-251; type: cell-based; conditions: Homo sapiens, cellular ATP, read-out: U251 LC50
Method: as §1

OCI DLBCL cells = assay: Annexin V staining assay; conditions: 5 µM
Method: OCI DLBCL cells were treated with 56 for 24 h. Cells were lysed and analyzed by western blot assay for cleaved poly-ADP-ribose polymerase (PARP), a well-accepted apoptosis marker [42] (Abcam, Cambridge, UK).

## N#C/C(=C\c1ccc(-c2cc(Cl)ccc2Cl)o1)C(=O)Nc1cccc2ncccc12 [AGK2, reference compound]
SIRT1 [1]
  IC50: > 50 µM
[2]
  CC50: 73.2 µM

## NC(=O)C(Cc1c(O)ccc2cc(Br)ccc12)C(=O)c1ccc(Cl)cc1 (stereo not shown) [Compound 19, 2-[(6-Bromo-2-hydroxynaphthalen-1-yl)methyl]-3-(4-chlorophenyl)-3-oxopropanamide]
[3]
  CC50: 5 µM
[4]
  CC50: 7.3 µM
SIRT3
  inhibition at 50 µM: 30%
SIRT2
  IC50: 2.79 µM and 2.8 µM
  inhibition at 50 µM: 95%
[2]
  CC50: 8.2 µM
SIRT1 [5]
  inhibition at 50 µM: 0%

## NC(=O)C(Cc1c(O)ccc2cc(Br)ccc12)C(=O)c1ccc(Br)cc1 (stereo not shown) [Compound 22, 2-[(6-Bromo-2-hydroxynaphthalen-1-yl)methyl]-3-(4-bromo)-3-oxopropanamide]
[3]
  CC50: 7 µM
[4]
  CC50: 7.8 µM
SIRT3
  inhibition at 50 µM: 42%
SIRT2
  IC50: 2.5 µM
  inhibition at 50 µM: 93%
[2]
  CC50: 1.6 µM
SIRT1 [5]
  inhibition at 50 µM: 7%

## CNC(=O)C(Cc1c(O)ccc2cc(Br)ccc12)C(=O)c1ccc(C(F)(F)F)cc1 (stereo not shown) [Compound 33, 2-[(6-Bromo-2-hydroxynaphthalen-1-yl)methyl]-N-methyl-3-oxo-3-[4-(trifluoromethyl)phenyl]propenamide]
[3]
  CC50: 14.5 µM
[4]
  CC50: 18.5 µM
SIRT3
  inhibition at 50 µM: 6%
SIRT2
  IC50: 0.59 µM
  inhibition at 50 µM: 97%
[2]
  CC50: 16.4 µM

## NC(=O)CCNC(=O)C(Cc1c(O)ccc2cc(Br)ccc12)C(=O)c1cccc(Br)c1 (stereo not shown) [Compound 43, 2-[(6-Bromo-2-hydroxynaphthalen-1-yl)methyl]-3-(3-bromophenyl)-N-(2-carbamoylethyl)-3-oxopropanamide]
[3]
  CC50: 15.8 µM
[4]
  CC50: 19.4 µM
SIRT3
  inhibition at 50 µM: 20%
SIRT2
  IC50: 0.96 µM
  inhibition at 50 µM: 89%
SIRT1 [5]
  inhibition at 50 µM: 0%

## O=C(NCCO)C(Cc1c(O)ccc2cc(Br)ccc12)C(=O)c1ccc(Cl)cc1 (stereo not shown) [Compound 47, 2-[(6-Bromo-2-hydroxynaphthalen-1-yl)methyl]-3-(4-chlorophenyl)-N-(2-hydroxyethyl)-3-oxopropanamide]
[4]
  CC50: 20.2 µM
SIRT3
  inhibition at 50 µM: 5%
SIRT2
  IC50: 0.96 µM
  inhibition at 50 µM: 98%
[2]
  CC50: 9.7 µM
SIRT1 [5]
  inhibition at 50 µM: 0%

## O=C(NCCO)C(Cc1c(O)ccc2cc(Br)ccc12)C(=O)c1ccc(Br)cc1 (stereo not shown) [Compound 48, 2-[(6-Bromo-2-hydroxynaphthalen-1-yl)methyl]-3-(4-bromophenyl)-N-(2-hydroxyethyl)-3-oxopropanamide]
[3]
  CC50: 10.5 µM
[4]
  CC50: 10 µM
[6]
  CC50: 11.8 µM
[7]
  CC50: 11.8 µM
SIRT3
  inhibition at 50 µM: 29%
[8]
  CC50: 14.7 µM
SIRT2
  IC50: 0.52 µM
  inhibition at 50 µM: 96%
[9]
  CC50: 15.8 µM
[2]
  CC50: 5 µM
SIRT1 [5]
  inhibition at 50 µM: 18%

## O=C(NCCO)C(Cc1c(O)ccc2cc(Br)ccc12)C(=O)c1ccc(C(F)(F)F)cc1 (stereo not shown) [Compound 49]
[3]
  CC50: 12 µM
[4]
  CC50: 16.5 µM
[6]
  CC50: 18.4 µM
[7]
  CC50: 20.2 µM
SIRT3; SIRT2 versus SIRT3
  selectivity for SIRT2 over SIRT3: > 800 fold
SIRT3
  inhibition at 50 µM: 27%
[8]
  CC50: 23.5 µM
SIRT2
  IC50: 0.27 µM
  inhibition at 50 µM: 99%
[9]
  CC50: 15.7 µM
[2]
  CC50: 13.1 µM
SIRT1 [5]; SIRT2 versus SIRT1
  selectivity for SIRT2 over SIRT1: > 400 fold
SIRT1 [5]
  inhibition at 50 µM: 15%

## NC(=O)CCNC(=O)C(Cc1c(O)ccc2cc(Br)ccc12)C(=O)c1ccc(Cl)cc1 (stereo not shown) [Compound 50, 2-[(6-Bromo-2-hydroxynaphthalen-1-yl)methyl]-N-(2-carbamoylethyl)-3-(4-chlorophenyl)-3-oxopropanamide]
[4]
  CC50: 19.9 µM
SIRT3
  inhibition at 50 µM: 17%
SIRT2
  IC50: 0.65 µM
  inhibition at 50 µM: 99%
[2]
  CC50: 11.7 µM
SIRT1 [5]
  inhibition at 50 µM: 4%

## NC(=O)CCNC(=O)C(Cc1c(O)ccc2cc(Br)ccc12)C(=O)c1ccc(Br)cc1 (stereo not shown) [Compound 51, 2-[(6-Bromo-2-hydroxynaphthalen-1-yl)methyl]-3-(4-bromophenyl)-N-(2-carbamoylethyl)-3-oxopropanamide]
[3]
  CC50: 19.2 µM
[4]
  CC50: 16.7 µM
SIRT3
  inhibition at 50 µM: 14%
SIRT2
  IC50: 0.58 µM
  inhibition at 50 µM: 98%
[9]
  CC50: 25.9 µM
[2]
  CC50: 10.2 µM
SIRT1 [5]
  inhibition at 50 µM: 20%

## NC(=O)CCNC(=O)C(Cc1c(O)ccc2cc(Br)ccc12)C(=O)c1ccc(C(F)(F)F)cc1 (stereo not shown) [Compound 52, 2-[(6-Bromo-2-hydroxynaphthalen-1-yl)methyl]-N-(2-carbamoylethyl)-3-oxo-3-[4-(trifluoromethyl)phenyl]-propenamide]
[3]
  CC50: 28.2 µM
[4]
  CC50: 19.4 µM
SIRT3
  inhibition at 50 µM: 21%
SIRT2
  IC50: 0.65 µM
  inhibition at 50 µM: 93%
[2]
  CC50: 25.5 µM
SIRT1 [5]
  inhibition at 50 µM: 0%

## CNC(=O)CCNC(=O)C(Cc1c(O)ccc2cc(Br)ccc12)C(=O)c1ccc(Cl)cc1 (stereo not shown) [Compound 54, 2-[(6-Bromo-2-hydroxynaphthalen-1-yl)methyl]-3-(4-chlorophenyl)-N-[2-(methylcarbamoyl)ethyl]-3-oxo-propanamide]
[3]
  CC50: 15.8 µM
[4]
  CC50: 18.5 µM
[6]
  CC50: 16.5 µM
[7]
  CC50: 18 µM
SIRT3
  inhibition at 50 µM: 6%
[8]
  CC50: 23.8 µM
SIRT2
  IC50: 0.59 µM
  inhibition at 50 µM: 99%
[9]
  CC50: 17.3 µM
[2]
  CC50: 11.2 µM
SIRT1 [5]
  inhibition at 50 µM: 12%

## COc1cc([C@@H]2c3cc4c(cc3[C@@H](O[C@@H]3O[C@@H]5CO[C@@H](C)O[C@H]5[C@H](O)[C@H]3O)[C@H]3COC(=O)[C@H]23)OCO4)cc(OC)c1O [Etoposide, etoposide, reference compound]
OCI DLBCL cells
  Q1 (necrotic cell death) cell population: 5.1%
  Q2 (apoptotic cells) cell population: 59.8%
  Q3 cell population: 26.8%
  Q4 cell population: 8.3%

— publication PMC7036909, “Discovery of Selective SIRT2 Inhibitors as Therapeutic Agents in B-Cell Lymphoma and Other Malignancies” (Molecules, 2020)
